From patent US20110105472A1, “Diaminopyrimidines as crop protection agents” (Bayer CropScience AG, priority 2008, published 2011) come the findings set out here.

This data set is described as follows: logP by LC-MS, method [b], acidic range pH 2.7. Format: physicochemical. To be noted: pH 2.7.

Consider `CN1CC(=O)N(c2ccc(Nc3ncc(Br)c(NC4CCC4)n3)cc2)C1=O` [Compound 164], for which the log p was 1.63[b].

On to `CC(C)(CCl)C(=O)Nc1ccc(Nc2ncc(Br)c(NC3CCC3)n2)cc1` [Compound 165], for which the log p is 2.16[b]. The result for `CC(C)(CF)C(=O)Nc1cccc(Nc2ncc(Br)c(NC3CCC3)n2)c1` [Compound 166] reads 2.09[b]; that for `O=C(Nc1cccc(Nc2ncc(Br)c(NC3CCC3)n2)c1)c1ccco1` [Compound 167], 1.94[b]; that for `CC(C)(CF)C(=O)Nc1ccc(Nc2ncc(Br)c(NC3CCC3)n2)cc1` [Compound 171], 1.99[b]. As for `CCC(=O)c1ccc(Nc2ncc(Br)c(NC3CCC3)n2)cc1` [Compound 172], the log p is 3.19[b]. The result for `O=C1OCCN1c1ccc(Nc2ncc(Br)c(NC3CCC3)n2)cc1` [Compound 173] reads 1.62[b]; that for `O=C1CCCN1c1ccc(Nc2ncc(Br)c(NC3CCC3)n2)cc1` [Compound 174], 1.72[b]. The result for `COCCNCc1ccc(Nc2ncc(Br)c(NC3CCC3)n2)cc1` [Compound 176] reads 1.13[b]; that for `CC(=O)c1cc(Nc2ncc(Br)c(NC3CCC3)n2)ccc1O` [Compound 177], 2.09[b]. The figure for `Oc1cccc(Nc2ncc(Br)c(NC3CCC3)n2)c1` [Compound 178] is 1.5[b]; for `CS(=O)(=O)c1ccc(Nc2ncc(Br)c(NC3CCC3)n2)cc1` [Compound 179] it is 2.32[b]; for `O=C(NC1CC1)c1cccc(Nc2ncc(Br)c(NC3CCC3)n2)c1` [Compound 180] it is 1.78[b]. For `O=C(NCC(F)(F)F)c1cccc(Nc2ncc(Br)c(NC3CCC3)n2)c1` [Compound 181], the log p was 2.21[b]. With `Oc1ccc(Nc2ncc(Br)c(NC3CCC3)n2)cc1F` [Compound 184], the log p is 1.5[b]. Regarding `OCc1cccc(Nc2ncc(Br)c(NC3CCC3)n2)c1` [Compound 185], the log p was 1.44[b].

Take `CC(=O)Nc1ccc(Nc2ncc(Br)c(NC3CCC3)n2)cc1Cl` [Compound 186]: the log p was 1.97[b]. In the case of `O=C1NC(=O)C(c2ccc(Nc3ncc(Br)c(NC4CCC4)n3)cc2)N1` (stereo not drawn) [Compound 187], the log p is 1.24[b].

As for `CCSc1cccc(Nc2ncc(Cl)c(NC3CCC3)n2)c1` [Compound 188], the log p was 3.15[b]. The figure for `CCNC(=O)c1cccc(Nc2ncc(Br)c(NC3CCC3)n2)c1` [Compound 190] is 1.73[b]; for `O=C(c1ccc(Nc2ncc(Br)c(NC3CCC3)n2)cc1)N1CCOCC1` [Compound 191] it is 1.75[b]. The result for `CNC(=O)c1cccc(Nc2ncc(Br)c(NC3CCC3)n2)c1` [Compound 192] reads 1.58[b]; that for `CCOC(=O)Nc1ccc(Nc2ncc(Br)c(NC3CCC3)n2)cc1` [Compound 195], 1.9[b]; that for `CNC(=O)Oc1cccc(Nc2ncc(Br)c(NC3CCC3)n2)c1` [Compound 196], 1.75[b]. Consider `O=C(c1ccc(Nc2ncc(Br)c(NC3CCC3)n2)cc1)C(F)(F)F` [Compound 197], for which the log p was 4.41[b]. As for `CC(=O)Nc1cc(Nc2ncc(Br)c(NC3CCC3)n2)ccc1C` [Compound 200], the log p is 1.58[b].

For the compound `Cc1cc(Nc2ncc(Br)c(NC3CCC3)n2)ccc1O` [Compound 201], the log p was 1.59[b]. As for `FC(F)Sc1ccc(Nc2ncc(Br)c(NC3CCC3)n2)cc1` [Compound 202], the log p was 3.41[b].

For `O=C(c1ccc(Nc2ncc(Cl)c(NC3CCC3)n2)cc1)N1CCCCC1` [Compound 203], the log p was 2.27[b]. The figure for `O=C1CCCCN1c1cccc(Nc2ncc(Cl)c(NC3CCC3)n2)c1` [Compound 204] is 1.66[b]; for `CC(C)c1cccc(Nc2ncc(Br)c(NC3CCC3)n2)c1` [Compound 205] it is 3.21[b]. The result for `O=C1N(CCCl)CCN1c1cccc(Nc2ncc(Br)c(NC3CCC3)n2)c1` [Compound 206] reads 2.19[b]; that for `COc1ccc(Nc2ncc(Br)c(NC3CCC3)n2)cc1` [Compound 208], 1.8[b]. Take `CC(=O)N(c1ccc(Nc2ncc(Br)c(NC3CCC3)n2)cc1)C1CC1` [Compound 209]: the log p was 1.9[b]. The result for `O=C1COCCN1c1cccc(Nc2ncc(Br)c(NC3CCC3)n2)c1` [Compound 210] reads 1.53[b]. With `OC(c1cccc(Nc2ncc(Br)c(NC3CCC3)n2)c1)C(F)(F)F` (stereo not drawn) [Compound 214], the log p was 2.17[b].

On to `OC(c1cccc(Nc2ncc(Cl)c(NC3CCC3)n2)c1)C(F)(F)F` (stereo not drawn) [Compound 218], for which the log p is 2.04[b].

Consider `N#CCc1cc(Nc2ncc(Br)c(NC3CCC3)n2)ccc1F` [Compound 219], for which the log p was 2.2[b]. As to `N#CCc1cccc(Nc2ncc(Br)c(NC3CCC3)n2)c1` [Compound 220], the log p is 2.12[b]. The figure for `CCc1cc(Nc2ncc(Cl)c(NC3CCC3)n2)ccc1C` [Compound 222] is 2.73[b]; for `O=C(c1ccc(Nc2ncc(C(F)(F)F)c(NC3CCC3)n2)cc1)N1CCCCC1` [Compound 223] it is 3.31[b]; for `Cc1cccc(Nc2ncc(Br)c(NC3CCC3)n2)c1` [Compound 224] it is 2.55[b]. On to `CC(C)c1cccc(Nc2ncc(C(F)(F)F)c(NC3CCC3)n2)c1` [Compound 225], for which the log p was 4.61[b]. The figure for `N#CCc1cccc(Nc2ncc(C(F)(F)F)c(NC3CCC3)n2)c1` [Compound 226] is 3.01[b]; for `CC(=O)c1cccc(Nc2ncc(C(F)(F)F)c(NC3CCC3)n2)c1` [Compound 227] it is 3.24[b]. The figure for `CCSc1cccc(Nc2ncc(Br)c(NC3CCC3)n2)c1` [Compound 228] is 3.37[b]; for `Brc1cnc(Nc2ccccc2)nc1NC1CCC1` [Compound 229] it is 2.18[b]. The figure for `Cc1cccc(Nc2ncc(Cl)c(NC3CCC3)n2)c1` [Compound 231] is 2.33[b]; for `N#CCc1ccc(Nc2ncc(Cl)c(NC3CCC3)n2)cc1` [Compound 233] it is 1.88[b]; for `CN1CCN(c2cccc(Nc3ncc(Cl)c(NC4CCC4)n3)c2)C1=O` [Compound 237] it is 1.66[b]. With `COc1cccc(Nc2ncc(C(F)(F)F)c(NC3CCC3)n2)c1` [Compound 238], the log p is 3.48[b].

Take `C=CCNC(=O)c1ccc(Nc2ncc(C(F)(F)F)c(NC3CCC3)n2)cc1` [Compound 239]: the log p was 2.79[b]. The result for `CN(C)C(=O)c1ccc(Nc2ncc(Cl)c(NC3CCC3)n2)cc1` [Compound 240] reads 1.6[b]; that for `C=CCNC(=O)c1ccc(Nc2ncc(Cl)c(NC3CCC3)n2)cc1` [Compound 241], 1.91[b]; that for `N#CCc1cccc(Nc2ncc(Cl)c(NC3CCC3)n2)c1` [Compound 242], 1.97[b]. The result for `CC(C)c1cccc(Nc2ncc(Cl)c(NC3CCC3)n2)c1` [Compound 243] reads 3.1[b]; that for `CC(=O)Cc1ccc(Nc2ncc(Cl)c(NC3CCC3)n2)cc1` [Compound 244], 1.75[b]. The result for `CCN(C)C(=O)c1ccc(Nc2ncc(Cl)c(NC3CCC3)n2)cc1` [Compound 246] reads 1.85[b]; that for `CN(C)C(=O)c1cccc(Nc2ncc(Cl)c(NC3CCC3)n2)c1` [Compound 247], 1.57[b]. Take `O=C(c1ccc(Nc2ncc(Cl)c(NC3CCC3)n2)cc1)N1CCOCC1` [Compound 249]: the log p is 1.24[b]. The result for `CCc1cccc(Nc2ncc(Cl)c(NC3CCC3)n2)c1` [Compound 251] reads 2.67[b]; that for `CCN(CC)C(=O)c1cccc(Nc2ncc(Br)c(NC3CCC3)n2)c1` [Compound 252], 2.26[b].

On to `CC(=O)CCc1cccc(Nc2ncc(Br)c(NC3CCC3)n2)c1` [Compound 253], for which the log p is 2.04[b]. The result for `CC(C)(C)c1cccc(Nc2ncc(Br)c(NC3CCC3)n2)c1` [Compound 254] reads 3.67[b]; that for `CC(=O)CCc1cccc(Nc2ncc(Cl)c(NC3CCC3)n2)c1` [Compound 256], 1.98[b]. With `O=S1(=O)CCCN1c1cccc(Nc2ncc(Cl)c(NC3CCC3)n2)c1` [Compound 257], the log p was 1.74[b]. The result for `O=S1(=O)CCCN1c1cccc(Nc2ncc(Br)c(NC3CCC3)n2)c1` [Compound 258] reads 2.25[b]; that for `CC(C)(C)c1cccc(Nc2ncc(C(F)(F)F)c(NC3CCC3)n2)c1` [Compound 259], 4.98[b]; that for `CNc1cccc(Nc2ncc(Cl)c(NC3CCC3)n2)c1` [Compound 260], 1.49[b]. The result for `CS(=O)(=O)c1cccc(Nc2ncc(C(F)(F)F)c(NC3CCC3)n2)c1` [Compound 264] reads 2.76[b]; that for `CS(=O)(=O)c1cccc(Nc2ncc(Br)c(NC3CCC3)n2)c1` [Compound 265], 2.07[b]. The result for `O=C1Cc2cc(Nc3ncc(Cl)c(NC4CCC4)n3)ccc2N1` [compound 7] reads 1.33[b]. Take `O=c1[nH]c2ccc(Nc3ncc(Cl)c(NC4CCC4)n3)cc2o1` [compound 8]: the log p was 1.55[b]. The result for `O=C1CCc2cc(Nc3ncc(Br)c(NC4CCC4)n3)ccc21` [compound 9] reads 2.59[b]. The figure for `O=c1oc2ccc(Nc3ncc(Br)c(NC4CCC4)n3)cc2s1` [compound 11] is 2.63[b].

Take `CN1C(=O)COc2ccc(Nc3ncc(Br)c(NC4CCC4)n3)cc21` [compound 14]: the log p is 1.85[b].

In the case of `O=S1(=O)Cc2ccc(Nc3ncc(Br)c(NC4CCC4)n3)cc2C1` [compound 20], the log p is 1.78[b]. The result for `O=C1NC(=O)c2cc(Nc3ncc(Br)c(NC4CCC4)n3)ccc21` [compound 22] reads 2.25[b]; that for `N#Cc1cnc(Nc2ccccc2)nc1NC1CCC1` [compound 29], 2.92[b]. On to `O=C1CCC(=O)N1c1ccc(Nc2ncc(Br)c(NC3CCC3)n2)cc1` [compound 34], for which the log p was 1.62[b].

Regarding `Oc1ccc(Nc2ncc(Br)c(NC3CCC3)n2)cc1` [compound 37], the log p was 1.27[b].
